Measured values as given in PubChem BioAssay AID256 (DTP/NCI, 2004).
Several values for one entry are separate records, joined by “and”; a condition that tells them apart may be missing. Identical values can stand only once. Toxic doses and inconclusive results are not listed. How the source made its calls: active means survival T/C of 150% or more; inactive means T/C below 125% in these data.

Tested on: CD2F1 mice, L1210 leukemia ip, survival T/C
Assay: NCI In Vivo Anticancer Drug Screen. Data for tumor model L1210 Leukemia (intraperitoneal) in CD2F1 (CDF1) mice
Details: endpoint: mean survival time, higher = longer survival
Outline: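 Vehicle-treated tumor-bearing mice served as controls (C) for compound-treated mice (T). Reported figure is T divided by C.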

[1] = dose: 100.0 mg/kg/injection, schedule: Q01DX001 (ip), vehicle: saline
[2] = dose: 100.0 mg/kg/injection, schedule: Q04DX002 (ip), vehicle: saline with Tween-80
[3] = dose: 200.0 mg/kg/injection, schedule: Q04DX002 (ip), vehicle: saline with Tween-80
[4] = dose: 400.0 mg/kg/injection, schedule: Q04DX002 (ip), vehicle: saline with Tween-80
[5] = dose: 100.0 mg/kg/injection, schedule: Q01DX009 (ip), vehicle: saline with Tween-80
[6] = dose: 200.0 mg/kg/injection, schedule: Q01DX009 (ip), vehicle: saline with Tween-80

Measured: T/C

O=C1C2C3C=CC(C3)C2C(=O)N1O (configuration not stated)
inactive: dose: 50.0 mg/kg/injection, schedule: Q01DX001 (ip), vehicle: carboxymethylcellulose (CMC) 106 % of control | dose: 100.0 mg/kg/injection, schedule: Q01DX001 (ip), vehicle: carboxymethylcellulose (CMC) 100 % of control | dose: 200.0 mg/kg/injection, schedule: Q01DX001 (ip), vehicle: carboxymethylcellulose (CMC) 112 % of control | dose: 400.0 mg/kg/injection, schedule: Q01DX001 (ip), vehicle: carboxymethylcellulose (CMC) 96 % of control

CC1C=CC(C)S1 (configuration not stated)
inactive: [1] 100 % of control | [2] 101 % of control | dose: 200.0 mg/kg/injection, schedule: Q01DX001 (ip), vehicle: saline 101 % of control | [3] 104 % of control | dose: 400.0 mg/kg/injection, schedule: Q01DX001 (ip), vehicle: saline 105 % of control | [4] 112 % of control

ClCCOCC1CO1 (configuration not stated)
inactive: dose: 150.0 mg/kg/injection, schedule: Q04DX003 (ip), vehicle: saline 101 % of control | dose: 225.0 mg/kg/injection, schedule: Q04DX003 (ip), vehicle: saline 104 % of control | dose: 335.0 mg/kg/injection, schedule: Q04DX003 (ip), vehicle: saline 96 % of control

Cn1c(=O)[nH]c2c(nc(-c3ccc4c(c3)OCO4)n2C)c1=O
inactive: dose: 7.8 mg/kg/injection, schedule: Q01DX005 (ip), vehicle: other 100 % of control | dose: 15.6 mg/kg/injection, schedule: Q01DX005 (ip), vehicle: other 95 % of control | dose: 31.3 mg/kg/injection, schedule: Q01DX005 (ip), vehicle: other 100 % of control | dose: 62.5 mg/kg/injection, schedule: Q01DX005 (ip), vehicle: other 103 % of control

CC1(C(=O)c2ccccc2)CC2C=CC1C2 (configuration not stated)
inactive: dose: 50.0 mg/kg/injection, schedule: Q04DX002 (ip), vehicle: saline with Tween-80 94 % of control | [2] 108 % of control | [3] 94 % of control

CC1(C)N=C(N)N=C(N)N1c1ccc(CCCCc2ccc(S(=O)(=O)F)cc2)c(Cl)c1
inactive: dose: 13.0 mg/kg/injection, schedule: Q01DX009 (ip), vehicle: saline with Tween-80 116 % of control | dose: 20.0 mg/kg/injection, schedule: Q01DX009 (ip), vehicle: saline with Tween-80 120 % of control | dose: 45.0 mg/kg/injection, schedule: Q01DX009 (ip), vehicle: saline with Tween-80 93 % of control

CC1CC(O)C(=O)C(O[C@@H]2C[C@@H]3CC[C@@H]4[C@H](CC[C@]5(C)C(C6=CC(=O)OC6)CC[C@]45O)[C@@]3(C=O)C[C@H]2O)O1 (some centres not stated)
inactive: dose: 6.25 mg/kg/injection, schedule: Q01DX001 (ip), vehicle: saline with Tween-80 104 % of control | dose: 12.5 mg/kg/injection, schedule: Q01DX001 (ip), vehicle: saline with Tween-80 104 % of control

CC(S(N)(=O)=O)S(N)(=O)=O
inactive: dose: 100.0 mg/kg/injection, schedule: Q01DX001 (ip), vehicle: saline with Tween-80 105 % of control | dose: 200.0 mg/kg/injection, schedule: Q01DX001 (ip), vehicle: saline with Tween-80 102 % of control | dose: 400.0 mg/kg/injection, schedule: Q01DX001 (ip), vehicle: saline with Tween-80 94 % of control

NC1=NC(c2ccccc2)N(c2cccc(Cl)c2)C(N)=N1 (configuration not stated)
inactive: dose: 25.0 mg/kg/injection, schedule: Q01DX001 (ip), vehicle: saline 107 % of control | dose: 50.0 mg/kg/injection, schedule: Q01DX001 (ip), vehicle: saline 104 % of control | [1] 101 % of control

BrC1c2cccc3cccc(c23)C1Br (configuration not stated)
inactive: dose: 6.25 mg/kg/injection, schedule: Q01DX009 (ip), vehicle: saline with Tween-80 115 % of control | dose: 12.5 mg/kg/injection, schedule: Q01DX009 (ip), vehicle: saline with Tween-80 108 % of control | dose: 25.0 mg/kg/injection, schedule: Q01DX009 (ip), vehicle: saline with Tween-80 115 % of control and 106 % of control | dose: 50.0 mg/kg/injection, schedule: Q01DX009 (ip), vehicle: saline with Tween-80 115 % of control and 105 % of control | [5] 100 % of control and 112 % of control | [6] 110 % of control

Cn1c(N)nc2nc[nH]c2c1=S
inactive: dose: 16.0 mg/kg/injection, schedule: Q01DX008 (iv), vehicle: saline 100 % of control | dose: 32.0 mg/kg/injection, schedule: Q01DX008 (iv), vehicle: saline 98 % of control | dose: 64.0 mg/kg/injection, schedule: Q01DX008 (iv), vehicle: saline 105 % of control

CCCCCCC(C)Oc1ccccc1Cl (configuration not stated)
inactive: [2] 107 % of control | [3] 86 % of control | [4] 96 % of control

O=C(O)/C=C/c1ccco1
inactive: [5] 95 % of control | dose: 100.0 mg/kg/injection, schedule: Q04DX003 (ip), vehicle: saline with Tween-80 101 % of control | [6] 94 % of control | dose: 200.0 mg/kg/injection, schedule: Q04DX003 (ip), vehicle: saline with Tween-80 98 % of control | dose: 400.0 mg/kg/injection, schedule: Q01DX009 (ip), vehicle: saline with Tween-80 96 % of control | dose: 400.0 mg/kg/injection, schedule: Q04DX003 (ip), vehicle: saline with Tween-80 108 % of control

O=C1CCCN1
inactive: dose: 50.0 mg/kg/injection, schedule: Q01DX009 (ip), vehicle: saline 91 % of control | dose: 100.0 mg/kg/injection, schedule: Q01DX009 (ip), vehicle: saline 98 % of control | dose: 200.0 mg/kg/injection, schedule: Q01DX009 (ip), vehicle: saline 89 % of control
